Where a name gives a salt, the structure may show the parent alone.
Experiments:
[1] = tested on: human ovarian OVCAR-3 carcinoma cells; assay: Vascular disruption effects in human tumor xenograft model (tumor histology, hematoxylin and eosin Y); assay type: in vivo, Crl:Nu/Nu-nuBR mice; settings: OVCAR-3 xenograft, 24 hours after dosing; for blood vessels in the necrotic areas / tumor necrosis pattern (central area of the tumors): 10 mg/kg test compound, 100 mg/kg CA4P
Protocol: (4-Methoxy-phenyl)-methyl-(2-methyl-quinazolin-4-yl)-amine hydrochloride was tested in a human tumor xenograft model to determine its vascular disruption effects. Crl:Nu/Nu-nuBR mice were grown and injected with 1×10^7 human ovarian OVCAR-3 carcinoma cells on the right flank and allowed to grow to various tumor volumes. Mice were then dosed with either vehicle, 100 mg/kg combretastatin A-4 phosphate (CA4P) (obtained from Toronto Research Chemicals, Ontario, Canada) or 10 mg/kg (4-Methoxy-phenyl)-methyl-(2-methyl-quinazolin-4-yl)-amine hydrochloride.
Animals were housed by groups in Positive Individual Ventilation (PIV) cages in flat-bottom cages (Thoren Caging Systems, Hazelton, Pa.) with no more than ten mice per cage. Cages contained autoclaved TEK-Fresh bedding (Harlan, Indianapolis, Ind.), which was changed every seven days. Environmental controls were set to maintain a temperature between 65° F. and 75° F. with a relative humidity of 30-70% in a 12:12 hour light:dark cycle. Animals were feed gamma-irradiated 2019 rodent chow ad libitum (Harlan, Indianapolis, Ind.). Tap water was sterilized using manufacture recommended conditions and supplied via an automated watering system ad libitum (Edstrom Industries, Waterford, Wis.). Twenty four hours after dosing, mice were sacrificed and tumors and hearts removed, fixed, sectioned and stained with hematoxylin and eosin Y (each obtained from Richard Allen Scientific, Kalamazoo, Mich.).

[2] = Phase I clinical trial, weekly intravenous administration, subjects with refractory solid tumors (safety, tolerability); assay type: in vivo, human; settings: i.v. weekly x3 per 4 week cycle, 0.3-3.3 mg/m^2
Protocol: An open-label, dose-escalating, multiple-dose study to define the safety, tolerability and pharmacokinetics of weekly intravenous administration of (4-Methoxy-phenyl)-methyl-(2-methyl-quinazolin-4-yl)-amine hydrochloride was performed. A dosing schedule (each 4 week cycle) was performed for (4-Methoxy-phenyl)-methyl-(2-methyl-quinazolin-4-yl)-amine hydrochloride weekly for 3 weeks with no infusion on the fourth week of each cycle. Subjects with refractory solid tumors were enrolled in cohorts of 3. During Cycle 1, subjects were hospitalized during each infusion of (4-Methoxy-phenyl)-methyl-(2-methyl-quinazolin-4-yl)-amine hydrochloride and remained for observation and safety evaluation for approximately 24 hours following the end of the infusion. All subject had continuous telemetry for 2 hours prior to infusion, for 1-2 hour infusion and for 3 hours after the end of the infusion. Any clinically significant electrocardiographic (ECG) wave form abnormality was recorded and prolongation of the monitoring period extended at the discretion of the principal investigator.
Electrocardiograms were obtained prior to starting the infusion and within 30 minutes of the end of infusion for each infusino of the first cycle. Electrocardiograms on Day 1 were obtained in triplicate 5 minutes apart.
Neurocognitive assessments were made by administration of the Mini-Mental State Examination (MMSE), the Hopkins Verbal Learning and timed Grooved Pegboard tests before administration of the intravenous infusion and approximately 24 hours of the infusion at each weekly administration of the first cycle.
On days 1, 8, and 15 of each cycle, vital signs were obtained prior to the first dose, at 15, 30, and 60 minutes after the initiation of the infusion, and at 0.5, 1, 1.5, 2, and 4 hours after the end of the intravenous infusion. Vital signs at all time points beyond the start of the intravenous infusion included heart rate, blood pressure and respirations. Temperature was measured at the end of the infusion and 4 hours later.
Individual subjects were allowed to continue on repeated weekly ×3 administrations every 28 days with no dose increase provided there was no unacceptable toxicity or disease progression.
Tumor response was evaluated by response evaluation criteria in solid tumors (RECIST) criteria. To prevent sever hypersensitivity reactions due to Cremophor® EL, subjects were premedicated with oral dexamethasone (20 mg) administered approximately 12 and 6 hours before the intervenous infusion with (4-Methoxy-phenyl)-methyl-(2-methyl-quinazolin-4-yl)-amine hydrochloride, diphenhydramine (50 mg) or its equivalent administered intravenously 30-60 minutes before (4-Methoxy-phenyl)-methyl-(2-methyl-quinazolin-4-yl)-amine hydrochloride, and cimetidine (300 mg) or ranitidine (50 mg) administered intravenously 30-60 minutes before (4-Methoxy-phenyl)-methyl-(2-methyl-quinazolin-4-yl)-amine hydrochloride.

In the case of `COc1ccc(N(C)c2nc(C)nc3ccccc23)cc1` [(4-Methoxy-phenyl)-methyl-(2-methyl-quinazolin-4-yl)-amine hydrochloride], the “blood vessels in the necrotic areas” value [1] was “consistently congested with perivascular hemorrhage”, the “tumor necrosis pattern (central area of the tumors)” value [1] was “extensive necrosis with a rim of viable tumor tissue around the periphery” and the “degree of necrosis compared with CA4P treated animals” value ([1]; 10 mg/kg vs 100 mg/kg CA4P) was “greater”. The bradycardia [2] was “occasional episodes of bradycardia”, the dose limiting toxicity [2] was “vascular in nature, manifested by an acute coronary syndrome” and the intratumor bleeding [2] was “incidences of intratumor bleeding”. For the same molecule, the “overall safety and tolerability” value [2] was “safe and tolerable”, the peripheral cytotoxicity [2] was “no evidence of cytotoxity peripherally” and the systolic blood pressure [2] was “dose-related increase”. For the same molecule, the “effects on cardiac conduction (PR, QRS or QTC)” value ([2]; ECG) was “no significant effects”.

For `COc1ccc(/C=C\c2cc(OC)c(OC)c(OC)c2)cc1OP(=O)(O)O` [CA4P, combretastatin A-4 phosphate, reference compound], the “blood vessels in the necrotic areas” value [1] was “consistently congested with perivascular hemorrhage” and the “tumor necrosis pattern (central area of the tumors)” value [1] was “extensive necrosis with a rim of viable tumor tissue around the periphery”.

From patent publication US20100093773A1, “METHODS OF TREATING CANCER” (Myriad Pharmaceuticals, Inc., priority 2007, published 2010)
